The target in assay [1] is T1, CDC7/DBF4 (Cell division cycle 7-related protein kinase/Activator of S phase kinase) (Homo sapiens, UniProt O00311). The assay can be described thus: Inhibition of N-terminal GST-fused full-length human CDC7 (1 to 574 end residues)/DBF4 (1 to 674 residues) expressed in baculovirus expression system using MCM2 as substrate preincubated with enzyme for 10 mins prior to 1 uM ATP addition by HTRF transcreener ADP assay.

Assay [2] has as its target Cyclin-dependent kinase 2/cyclin E1 (Homo sapiens, UniProt P24941). The assay can be described thus: Inhibition of N-terminal GST-tagged full-length human CDK2 (1 to 298 residues)/Cyclin E (1 to 410 residues) expressed in baculovirus expression system using histone H1 as susbtrate after 90 mins by Kinase-Glo luminescence assay.
Assay [3] addresses Rho-associated protein kinase 1 (Homo sapiens, UniProt Q13464). The assay can be described thus: Inhibition of N-terminal GST-tagged human ROCK1 catalytic domain (1 to 477 residues) expressed in baculovirus expression system using biotin-STK-substrate 2 as substrate preincubated with enzyme for 5 mins followed by ATP addition and measured after 2 hrs by TR-FRET assay.
For assay [4], the species on record is Homo sapiens. The assay can be described thus: Selectivity index, ratio of IC50 for N-terminal GST-tagged full-length human CDK2 (1 to 298 residues)/Cyclin E (1 to 410 residues) expressed in baculovirus expression system to IC50 for N-terminal GST-fused full-length human CDC7 (1 to 574 end residues)/DBF4 (1 to 674 residues) expressed in baculovirus expression system.

Assay [5] is filed under the species Homo sapiens. The assay can be described thus: Selectivity index, ratio of IC50 N-terminal GST-tagged human ROCK1 catalytic domain (1 to 477 residues) expressed in baculovirus expression system to IC50 for N-terminal GST-fused full-length human CDC7 (1 to 574 end residues)/DBF4 (1 to 674 residues) expressed in baculovirus expression system.
The target in assay [6] is T1, CDC7/DBF4 (Cell division cycle 7-related protein kinase/Activator of S phase kinase). Briefly: Inhibition of N-terminal GST-fused full-length human CDC7 (1 to 574 end residues)/DBF4 (1 to 674 residues) expressed in baculovirus expression system using MCM2 as substrate in presence of 50 uM ATP by HTRF transcreener ADP assay.
The target is the same in assay [7]. Briefly: Inhibition of N-terminal GST-fused full-length human CDC7 (1 to 574 end residues)/DBF4 (1 to 674 residues) expressed in baculovirus expression system using MCM2 as substrate preincubated with enzyme for 60 mins prior to 50 uM ATP addition by HTRF transcreener ADP assay.
Assay [8] concerns the target Cell division cycle 7-related protein kinase (Homo sapiens, UniProt O00311). Briefly: Inhibition of CDC7 in human HeLa cells assessed as inhibition of MCM2 phosphorylation at Ser40 residue in human HeLa cells after 7 hrs by Western blot analysis. The format is cell-based.
The subject of another assay is COLO 205. Briefly: Antiproliferative activity against human COLO205 cells assessed as reduction in cell growth after 3 days by CellTiter-Glo luminescence assay. Type of assay: functional, cell-based. The settings on record: COLO 205, 72 h.
Assay [9] is described as follows: Drug metabolism in aqueous media assessed as formaldehyde adduct formation at 5 nmol after 30 mins in presence of excess formaldehyde by QTOF-UPLC analysis.
Assay [10] in a line: Drug metabolism in reaction buffer containing 50 mM HEPES, 0.1 mM orthovanadate, 0.01% BSA, 10 mM MgCl2, and 1 mM DTT at pH 7.5.
Assay [11] can be described thus: Drug metabolism in reaction buffer containing 25 mM HEPES, 0.1% Tween 20, 0.01% BSA, 10 mM Mg(OAc)2, and 1 mM DTT at pH 7.5.
Assay [12] in a line: Drug metabolism in reaction buffer containing 20 mM HEPES, 10 mM Mg(OAc)2, and 1 mM DTT at pH 7.5.

pEC50, pIC50: −log10 of the molar value.

`Cc1n[nH]cc1-c1cc2nc([C@@H]3CCN3)[nH]c(=O)c2s1`: the results for the negative logarithm of the IC50 (pIC50) in assay [1], in assay [2] and in assay [3] were 8.68, 5.16 and 6.12, respectively. Besides, the Ratio IC50 is 3300 in the assay listed under Homo sapiens [4] and 360 in the assay listed under Homo sapiens [5].
The corresponding values for `Cc1n[nH]cc1-c1cc2nc([C@@H]3CCCN3C)[nH]c(=O)c2s1` are 8.72, less than 5.00, 6.80, more than 5300 and 84.
On to `O=c1[nH]c([C@@H]2CCCCN2)nc2cc(-c3c[nH]nc3C(F)(F)F)sc12`, for which the negative-log IC50 (pIC50) in assay [1] is 9.37; in [2] it was 5.02; in assay [3], 6.28; in assay [6] it was 7.14; in assay [7] it was 9.14; in [8], 7.39. Also, the negative logarithm of the EC50 (pEC50) in the assay on COLO 205 was 6.64.
`Cc1n[nH]cc1-c1cc2nc([C@H]3CC4CCN3CC4)[nH]c(=O)c2s1`: the pIC50 was 9.00 in assay [1], less than 5.00 in assay [2] and 6.34 in [3].
Taken in the same sequence, the figures for `Cc1n[nH]cc1-c1cc2nc([C@H]3CCCCN3)[nH]c(=O)c2s1` were 9.04, 5.32 and 6.43.
Regarding `Cc1n[nH]cc1-c1cc2nc([C@@H]3CCCCCN3)[nH]c(=O)c2s1`, the pIC50 in assay [1] is 8.92; in assay [2], 5.55; in assay [3], 6.35. Further, the Ratio IC50 was 2300 in the assay filed under Homo sapiens [4] and 380 in the assay filed under Homo sapiens [5].
Turning to `Cc1n[nH]cc1-c1cc2nc([C@@H]3CC4CCN3CC4)[nH]c(=O)c2s1` [SIMUROSERTIB], in the assay with COLO 205, the negative-log EC50 (pEC50) was 7.09. For the same molecule, the Drug metabolism entry in assay [9], in assay [10], in [11] and in assay [12] was “Metabolite not detected” throughout.
As for `Cc1n[nH]cc1-c1cc2nc([C@]3(C)CCCN3)[nH]c(=O)c2s1`, the negative-log IC50 (pIC50) is 8.01 in assay [1], 5.00 in [2] and 6.57 in assay [3]. Moreover, the Ratio IC50 in the assay filed under Homo sapiens [4] was determined as 1000; in the assay listed under Homo sapiens [5], 28.
Consider `Cc1n[nH]cc1-c1cc2nc([C@@H]3CCC(C)(C)N3)[nH]c(=O)c2s1`, for which the negative-log IC50 (pIC50) in assay [1] was 8.72; in [2], less than 5.00; in assay [3] it was 5.82. Also, the Ratio IC50 in the assay listed under Homo sapiens [4] was more than 5300; in the assay listed under Homo sapiens [5], 790.
Taken in the same sequence, the figures for `Cc1n[nH]cc1-c1cc2nc([C@@H]3CC=CCN3)[nH]c(=O)c2s1` were 9.28, 5.33, 6.47, 8900 and 640.
For `Cc1n[nH]cc1-c1cc2nc(C34CCC(CC3)N4)[nH]c(=O)c2s1`, the pIC50 in assay [1] is 9.80; in assay [2], 5.82; in [3], 7.02. The Ratio IC50 worked out at 9400 in the assay filed under Homo sapiens [4] and 600 in the assay listed under Homo sapiens [5]. In addition, the Drug metabolism result in assay [9], in [10], in assay [11] and in assay [12] was “Metabolite not detected” each time.
For the molecule `Cc1n[nH]cc1-c1cc2nc([C@H]3NCC[C@@H]3C)[nH]c(=O)c2s1`, the pIC50 in assay [1] was 9.21; in [2], 6.21; in assay [3] it was 6.89. Moreover, the Ratio IC50 came to 1000 in the assay filed under Homo sapiens [4] and 210 in the assay listed under Homo sapiens [5].
On to `Cc1n[nH]cc1-c1cc2nc(C34CC(CN3)C4)[nH]c(=O)c2s1`, for which the negative-log IC50 (pIC50) is 9.80 in [1]; 5.57 in [2]; 6.66 in [3]; 7.11 in [6]; 8.68 in assay [7]; 6.89 in assay [8]. For the same molecule, the negative-log EC50 (pEC50) with COLO 205 was 6.12.
Take `Cc1n[nH]cc1-c1cc2nc([C@@H]3CCCN3)[nH]c(=O)c2s1`: the results for the pIC50 in [1], in assay [2] and in [3] were 9.15, 5.41 and 6.44, respectively. The Ratio IC50 in the assay filed under Homo sapiens [4] is 5500; in the assay listed under Homo sapiens [5], 510.
In the case of `Cc1n[nH]cc1-c1cc2nc([C@@H]3C[C@H](C)CN3)[nH]c(=O)c2s1`, the pIC50 is 8.89 in [1], 5.43 in assay [2] and 6.20 in assay [3]. Besides, the Ratio IC50 turned out to be 2800 in the assay filed under Homo sapiens [4] and 480 in the assay filed under Homo sapiens [5].

For the origin of these results see ChEMBL document CHEMBL4321874 (J Med Chem, 2020).
